Laboratory results published in ChEMBL document CHEMBL1140500, “Arene cis-dihydrodiols: useful precursors for the preparation of analogues of the anti-tumour agent, 2-crotonyloxymethyl-(4R,5R,6R)-4,5,6-trihydroxycyclohex-2-enone (COTC)” (Bioorg Med Chem Lett, 2007).

Key:
A549 = assay: Cytotoxicity against human A549 cells assessed as surviving cells after 4 days by MTT assay; assay type: cell-based
NCI-H460 = assay: Cytotoxicity against human H460 cells assessed as surviving cells after 4 days by MTT assay; assay type: cell-based

SMILES | IC50 (A549; a549) [µM] | IC50 (NCI-H460; nci-h460) [µM] | IC50 (A549; Homo sapiens, A549, 96 h) [µM] | IC50 (NCI-H460; Homo sapiens, NCI-H460, 96 h) [µM]
C/C=C/C(=O)OCC1=CC(O)C(O)C(O)C1=O (racemic) | 184 | 160 | – | –
C/C=C/C(=O)OCC1=CC(O)C2OC(C)(OC)C(C)(OC)OC2C1=O (racemic) | 30 | 18 | – | –
C/C=C/C(=O)OCC1=CC(O)C2OC(C)(OC)C(C)(OC)OC2C1=O (single isomer, unassigned; (+)) | – | – | 60 | 36
C/C=C/C(=O)OCC1=CC(O)C(O)C(O)C1=O (single isomer, unassigned; (-)) | – | – | 170 | 158
